One data set has as its system Erythrocytes. Kind of data set: RBC hemolysis assay. The note with it: for hemolytic activity when combined with pGL3: pH 7.4, peptide DNA polyplex 1.5 nmols and 7.5 μg pGL3. It counts as cell-based, mice. The protocol: Whole blood was obtained from male ICR mice by heart puncture with heparinized 22 G needles and collected in conical tubes containing 10 ml of 0.15 M PBS (pH 7.4) prewarmed to 37° C. Erythrocytes were immediately separated from plasma by centrifugation at 2000 rpm for 2 min, washed three times with 10 ml of PBS, and then diluted to 1.5×10^8 cells/ml. Peptides were prepared at 15 μM and serially diluted to 10-0.01 μM, after which 100 μl was pipetted in triplicate into a MultiScreenHTS BV 96 well plate. Erythrocytes (50 μl, 7.5×10^6 cells) were added to the peptides and incubated at 37° C. for 1 h followed by filtration on a Multiscreen vacuum manifold (Millipore Corporation, Billerica, Mass.). The filtrate was measured for Abs410nm on a Biotech plate reader (Biotech Instruments Incorporated., Winooski, Vt.) and compared to the 100% hemolysis caused by replacing PBS with water. Peptide DNA polyplexes (1.5 nmols and 7.5 μg pGL3) were also assayed for hemolysis as described above.

For data set [1], the system named is pGL3. Kind of data set: thiazole orange fluorophore exclusion assay of polyacridine-melittin peptides. It counts as binding. The note with it: pGL3, 0.1 μM thiazole orange. As for the experimental part: The relative binding affinity of peptides for DNA was determined by a fluorophore exclusion assay (Rich, D. H., Gesellchen, P. D., Tong, A., Cheung, A., and Buckner, C. K. (1975) Alkylating derivatives of amino acids and peptides. Synthesis of N-maleoylamino acids, [1-(N-maleoylglycyl)cysteinyl]oxytocin, and [1-(N-maleoyl-11-aminoundecanoyl)cysteinyl]oxytocin. Effects on vasopressin-stimulated water loss from isolated toad bladder. J. Med. Chem. 18, 1004-1010). pGL3 (200 μl of 4 μg/ml in 5 mM Hepes pH 7.5 containing 0.1 μM thiazole orange) was combined with 0, 0.05, 0.1, 0.25, 0.35, 0.5, 1, and 2 nmols of peptide in 300 μl of Hepes and allowed to bind at RT for 30 min. Thiazole orange fluorescence was measured using an LS50B fluorometer (Perkin-Elmer, U.K.) by exciting at 498 nm while monitoring emission at 546 nm with the slit widths set at 10 nm. A fluorescence blank of thiazole orange in the absence of DNA was subtracted from all values before data analysis. The data is presented as nmol of peptide per μg of DNA versus the percent fluorescence intensity±the standard deviation determined by three independent measurements.

Data set [2] can be described thus: particle size and zeta potential of polyacridine PEG-peptide DNA open polyplexes. It counts as physicochemical. The note with it: for apparent particle diameter: QELS, 0.2 nmols per μg of DNA or higher. The protocol: Polyacridine PEG-peptide DNA polyplexes were formed by combining 10 μg of pGL3 (in 500 μl of 5 mM Hepes pH 7.4) with an equal volume containing either 1, 2, 4, 8, 12, 16, or 20 nmol of polyacridine PEG-peptide while vortexing. The polyplexes were equilibrated at RT for 30 min prior to analysis of particle size (QELS) and zeta potential using a Brookhaven ZetaPlus (Brookhaven Instruments, Holtsville, N.Y.). The particle size diameter and zeta potential are reported as the mean and standard deviation of ten measurements.

For data set [3], the system named is pGL3. The experiment in a line: gel band shift assay of acridine PEGs and polyacridine PEG-peptides. The note with it: constant stoichiometry of 1 nmol per μg of DNA. It counts as binding. The protocol: The samples were loaded onto a 1% agarose gel (50 ml) and electrophoresed in TAE buffer at 80 V for 90 min. […] The samples were applied to a 1% agarose gel and electrophoresed as described above.

In data set [4] the test system is gastrocnemius muscle of ICR male mice. The experiment in a line: intramuscle-electroporation dosing and bioluminescence imaging. It is filed as in vivo. The following applies: IM-EP. The protocol:
Male ICR mice (Harlan), weighing 25-30 g were prepared for IM-EP dosing by anesthetization with an intraperitoneal dose of 200 μl of ketamine/xylazine (20 mg/ml and 2 mg/ml, respectively). The hamstring muscles were sheared and swabbed with 70% ethanol prior to administering a 50 μl dose over 10 sec in normal saline to both gastrocnemius muscles in 2 mice by a 1 ml monoject syringe (1 cc, 28 G×½). After dosing the BTX 2-Needle Array Electrode was inserted into the skin with the electrodes straddling the dosing site. Successive electronic stimulation was generated by the EMC BTX 830, Square-wave Pulse Generator (BTX, Harvard Apparatus) as the power source. At 1 min post-administration of the DNA dose, the pulse generator delivered six successive 100 V pulses over 20 msec with a 100 msec interval between pulses (31).
Luciferase reporter gene expression was quantified by bioluminescence imaging (BLI) at 2-14 days following IM-EP using an IVIS Imaging System 200 Series (Xenogen) (Wu, J. C., Sundaresan, G., Iyer, M., and Gambhir, S. S. (2001) Noninvasive optical imaging of firefly luciferase reporter gene expression in skeletal muscles of living mice. Molecular Therapy: the Journal of the American Society of Gene Therapy 4, 297-306). Mice were anesthetized by isofluorane (2% flow with oxygen) and dosed intramuscularly with 40 μL of 30 mg per ml D-Luciferin (GoldBio). Bioluminescent images were acquired 5 min post substrate administration and acquired for 1 min with a 24.6 cm field of view. The resultant grayscale images with a colormap overlay were analyzed using the Igor Pro 4.09 software (Livinglmage). Luciferase expression is reported as photons/sec/cm^2/steradian within a uniformly defined region of interest.

The mark [5] stands for this setting: RBC hemolysis at pH 5.0, second value of the cell (pH 7.4:5.0), read-out: HL50 (μM) pH 5.0.
Setting [6] is: RBC hemolysis at pH 7.4, first value of the cell (pH 7.4:5.0), read-out: HL50 (μM) pH 7.4.

Entries after “also recorded” stand apart in the source; their conditions may differ. Read-outs that look alike come from different tables or passages of the source. No end group written: not given here. *: point of attachment. 6‑(9-acridinylamino)hexanoyl = O=C(CCCCCNc1c2ccccc2nc2ccccc12)*; Acr = acridine on the lysine ε-amine; PEG = not defined here

With `CC[C@H](C)[C@H](NC(=O)CN)C(=O)NCC(=O)N[C@@H](C)C(=O)N[C@H](C(=O)N[C@@H](CC(C)C)C(=O)N[C@@H](CCCCN)C(=O)N[C@H](C(=O)N[C@@H](CC(C)C)C(=O)N[C@H](C(=O)N[C@H](C(=O)NCC(=O)N[C@@H](CC(C)C)C(=O)N1CCC[C@H]1C(=O)N[C@@H](C)C(=O)N[C@@H](CC(C)C)C(=O)N[C@H](C(=O)N[C@@H](CO)C(=O)N[C@@H](Cc1c[nH]c2ccccc12)C(=O)N[C@H](C(=O)N[C@@H](CCCCN)C(=O)N[C@@H](CCCNC(=N)N)C(=O)N[C@@H](CCCCN)C(=O)N[C@@H](CCCNC(=N)N)C(=O)N[C@@H](CCC(N)=O)C(=O)N[C@@H](CCC(N)=O)C(N)=O)[C@@H](C)CC)[C@@H](C)CC)[C@@H](C)O)[C@@H](C)O)C(C)C)C(C)C` [Melittin, reference compound], the EC50 was 2.3 µM in the data set with Erythrocytes (setting [5]) and 0.9 µM with Erythrocytes (setting [6]). Besides, the “hemolytic activity when combined with pGL3” value (from here on “hemolytic activity”) with Erythrocytes is “nearly unchanged”.

As to “(CWKKGIGAVLKVLTTGLPALISLIKRKRQQ)2 [Dimeric-melittin]”, the EC50 in the data set with Erythrocytes (setting [5]) is 1.2 µM; with Erythrocytes (setting [6]), 1 µM.

Consider “(m)GWKKGIGAVLKVLTTGLPALISLIKRKRQQ [Mal-melittin]”, for which the EC50 was 4.8 µM in the data set on Erythrocytes (setting [5]) and 3.84 µM in the data set with Erythrocytes (setting [6]). In addition, the “hemolytic activity” value with Erythrocytes was “maintained their hemolytic activity”.

Consider “CWKKGIGAVLKVLTTGLPALISLIKRKRQQ [Cys-melittin]”, for which the EC50 in the data set with Erythrocytes (setting [5]) turned out to be 0.7 µM; in the data set on Erythrocytes (setting [6]), 1 µM. For the same molecule, the “hemolytic activity” value with Erythrocytes was “maintained their hemolytic activity; also recorded: nearly unchanged”. The “thiazole orange displacement, asymptote / equivalence point of fluorescence intensity” value in the data set with pGL3 [1] is reported as “approximately 0.5 nmols of peptide per μg of DNA”.

As to “Lys(Acr)-Arg-Lys(Acr)-Arg-Lys(Acr)-Arg-Lys(Acr)-Arg-Cys (K(Acr)RK(Acr)RK(Acr)RK(Acr)RC) [poly(Acr-Arg)4-Cys]”, the EC50 in the data set with Erythrocytes (setting [5]) and in the data set with Erythrocytes (setting [6]) was more than 10 µM each time. The “thiazole orange displacement, asymptote / equivalence point of fluorescence intensity” value in the data set with pGL3 [1] is on record as “approximately 0.4 nmols of peptide per μg of DNA”; with pGL3 [1] (listed as (Acr-Arg)4-Cys), 0.35 nmols of peptide per μg of DNA.

Consider “PEG-Cys-Trp-(Lys(Acr))3: PEG5000 Da-maleimide on Cys of Cys-Trp-Lys3, Lys ε-amines conjugated with 6-(9-acridinylamino) hexanoic acid; SEQ ID NO: 3 (C(PEG 5000 Da maleimide)WK(6‑(9-acridinylamino)hexanoyl)K(6‑(9-acridinylamino)hexanoyl)K(6‑(9-acridinylamino)hexanoyl))”, for which the apparent particle diameter entry is “approximately 200 nm” in data set [2] and 200 nm in data set [2] (listed as PEG-Cys-(Lys(Acr))3). In data set [2] (titrating with 0.1 to 2 nmol per μg of DNA), the “zeta potential over titration” value was −15 to −5 mV. Besides, the “DNA band shift on agarose gel” value in the data set on pGL3 [3] is recorded as “further retarded DNA migration”.

For the molecule “PEG-Cys-Trp-(Lys(Acr))4: PEG5000 Da-maleimide on Cys of Cys-Trp-Lys4, Lys ε-amines conjugated with 6-(9-acridinylamino) hexanoic acid; SEQ ID NO: 4 (C(PEG 5000 Da maleimide)WK(6‑(9-acridinylamino)hexanoyl)K(6‑(9-acridinylamino)hexanoyl)K(6‑(9-acridinylamino)hexanoyl)K(6‑(9-acridinylamino)hexanoyl))”, the “DNA band shift on agarose gel” value in the data set on pGL3 [3] is given as “further retarded DNA migration”.

“PEG-Cys-Trp-(Lys(Acr))5: PEG5000 Da-maleimide on Cys of Cys-Trp-Lys5, Lys ε-amines conjugated with 6-(9-acridinylamino) hexanoic acid; SEQ ID NO: 5 (C(PEG 5000 Da maleimide)WK(6‑(9-acridinylamino)hexanoyl)K(6‑(9-acridinylamino)hexanoyl)K(6‑(9-acridinylamino)hexanoyl)K(6‑(9-acridinylamino)hexanoyl)K(6‑(9-acridinylamino)hexanoyl))”: the “luciferase expression at day 2, fold decrease versus pGL3” value in data set [4] (formulation 0.2 nmol per μg of DNA, 1 μg pGL3, mice) is on record as 100 fold. Besides, the “luciferase expression at day 2 compared with pGL3” value in data set [4] (open polyplex 2 nmol per μg of DNA, 1 μg pGL3, mice) is on record as “identical expression levels”. Besides, the “luciferase expression at day 2, fold lower than pGL3” value in data set [4] (open polyplex 4 nmol per μg of DNA, 1 μg pGL3, mice) is reported as “approximately 10 fold”. For the same molecule, in data set [4] (open polyplexes 4 nmol per μg of DNA, mice), the “loss in expression across the 14 day sampling period” value is on record as 2-3 fold. For the same molecule, in data set [4] (open polyplexes 0.2 and 2 nmol per μg of DNA, mice), the “decrease of expression over 14 days” value turned out to be 10 fold. Moreover, the zeta potential asymptote in data set [2] (at 1 nmol per μg of DNA) is reported as −5 mV. Also, in the data set with pGL3 [3], the “DNA band shift on agarose gel” value is reported as “complete retardation of DNA migration”.

Regarding “PEG-Cys-Trp-(Lys)5: PEGylated Cys-Trp-Lys5 without acridine, SEQ ID NO: 19 (C(PEG)WKKKKK; reading uncertain; also: PEG5000 Da maleimide on Cys, printed as PEG-Cys-Trp-(Lys)5)”, in the data set on pGL3 [3], the “DNA band shift on agarose gel” value is on record as “unable to cause a band DNA shift”.

These data come from patent publication US20120035320A1, “POLYACRIDINE NUCLEIC ACID DELIVERY PEPTIDE COMPLEXES” (University of Iowa Research Foundation, priority 2010, published 2012).
